From patent US7875621B2, “Substituted 2-alkyl quinazolinone derivatives as PARP inhibitors” (Janssen Pharmaceutica NV, priority 2004, dated 2011)
pIC50: −log10 of the molar value. Where two headings read alike, the source gives them in different places.

Columns and labels:
TANK-2 enzyme = target: T1, TANK-2 enzyme (Homo sapiens, UniProt Q9H2K2); assay: In vitro scintillation proximity assay (SPA) for TANK-2 inhibitory activity; assay type: biochemical; details: for IC50: auto-poly(ADP-ribosyl)ation, [3H]-NAD+, 96- or 384-well Ni Flash plates, read-out: in vitro SPA TANK-2 pIC50 (converted)
T1 construct: inferred from capture on Ni-coated flash plate; made in house
T1 sequence (Q9H2K2 1-1166): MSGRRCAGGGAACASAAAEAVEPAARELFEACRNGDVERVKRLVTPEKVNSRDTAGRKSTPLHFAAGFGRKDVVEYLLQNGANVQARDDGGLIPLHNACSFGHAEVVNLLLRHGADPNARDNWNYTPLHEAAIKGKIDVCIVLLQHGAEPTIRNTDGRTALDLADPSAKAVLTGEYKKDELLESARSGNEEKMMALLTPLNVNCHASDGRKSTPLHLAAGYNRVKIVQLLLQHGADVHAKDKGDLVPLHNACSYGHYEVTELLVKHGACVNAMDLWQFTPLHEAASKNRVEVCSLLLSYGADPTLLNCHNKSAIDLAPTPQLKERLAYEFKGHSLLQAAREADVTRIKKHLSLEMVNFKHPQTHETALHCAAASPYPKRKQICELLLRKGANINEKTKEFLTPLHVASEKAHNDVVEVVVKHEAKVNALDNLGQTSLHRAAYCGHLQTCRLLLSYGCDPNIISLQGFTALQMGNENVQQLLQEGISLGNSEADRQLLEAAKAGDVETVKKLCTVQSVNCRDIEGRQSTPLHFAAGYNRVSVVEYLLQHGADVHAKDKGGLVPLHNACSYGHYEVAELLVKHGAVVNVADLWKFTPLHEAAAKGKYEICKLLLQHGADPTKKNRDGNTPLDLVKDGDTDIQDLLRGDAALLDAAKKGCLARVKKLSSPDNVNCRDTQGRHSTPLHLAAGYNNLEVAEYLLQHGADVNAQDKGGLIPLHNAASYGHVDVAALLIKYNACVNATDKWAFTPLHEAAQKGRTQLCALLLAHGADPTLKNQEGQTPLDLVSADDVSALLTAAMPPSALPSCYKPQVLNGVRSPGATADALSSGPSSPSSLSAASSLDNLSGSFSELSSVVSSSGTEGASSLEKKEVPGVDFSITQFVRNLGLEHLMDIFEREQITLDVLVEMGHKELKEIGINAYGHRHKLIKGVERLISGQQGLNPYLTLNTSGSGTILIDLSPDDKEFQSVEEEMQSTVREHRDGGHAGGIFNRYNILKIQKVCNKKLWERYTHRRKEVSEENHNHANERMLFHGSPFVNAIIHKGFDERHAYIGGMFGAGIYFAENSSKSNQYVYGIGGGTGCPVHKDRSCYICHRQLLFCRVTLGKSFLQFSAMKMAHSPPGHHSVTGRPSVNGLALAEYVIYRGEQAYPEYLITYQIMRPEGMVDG
Procedure: In Vitro Scintillation Proximity Assay (SPA) for TANK-2 Inhibitory Activity
Compounds of the present invention were tested in an in vitro assay based on SPA technology with Ni Flash plates (96 or 384 well).
In principle, the assay relies upon SPA technology for the detection of auto-poly(ADP-ribosyl)ation of TANK-2 protein using [^3H]-nicotinamide adenine dinucleotide ([^3H]-NAD^+) as ADP-ribosyl donor.
A stock solution of [^3H]-NAD^+/NAD was made by adding 64.6 μl of [^3H]-NAD^+ (0.1 mCi/ml, supplier: Perkin Elmer) and 46.7 μl NAD-stock (10.7 mM, stored at −20° C., supplier Roche) to 1888.7 μl assay buffer (60 mM Tris/HCl, pH 7.4; 0.9 mM DTT; 6 mM MgCl2). The TANK-2 enzyme was produced as described in EP1238063. 60 μl of assay buffer, together with 1 μl of compound in DMSO, 20 μl of [^3H]-NAD^+/NAD and 20 μl of TANK-2 enzyme (final concentration 6 μg/ml) was added per well into a 96-well Ni-coated flash plate (Perkin Elmer). After incubation of the mixture for 120 min. at room temperature, the reaction was terminated by adding 60 μl of stopsolution (42.6 mg NAD in 6 ml H2O). The plates were covered with a plate sealer and placed in a TopCountNXT™ (Packard) for scintillation counting. Values were expressed as counts per minute (cpm). For each experiment, controls (containing TANK-2 enzyme and DMSO without compound), a blank incubation (containing DMSO but no TANK-2 enzyme or compound) and samples (containing TANK-2 enzyme and compound dissolved in DMSO) were run in parallel. All compounds tested were dissolved and eventually further diluted in DMSO. In first instance, compounds were tested at a concentration of 10^−5M. […] In each test, the blank value was subtracted from both the control and the sample values. The control sample represented maximal TANK-2 enzyme activity. For each sample, the amount of cpm was expressed as a percentage of the mean cpm value of the controls. When appropriate, IC50-values (concentration of the drug, needed to reduce the TANK-2 enzyme activity to 50% of the control) were computed using linear interpolation between the experimental points just above and below the 50% level. Herein the effects of test compounds are expressed as pIC50 (the negative log value of the IC50-value). As reference compounds, 3-aminobenzamide and 4-amino-1,8-naphtalimide were included to validate the SPA assay. Herein the assay was described using 96-well plates. In the assay using 384-well plates the same final concentrations were used and volumes were adapted.

SMILES | IC50 (TANK-2 enzyme) [µM] | melting point [°C] | pIC50 (TANK-2 enzyme)
O=C1NC(CCN2CCC3(CC2)C(=O)NCN3c2ccccc2)Nc2ccccc21 (stereo not drawn) [Compound 6] | 7.43 |  | 
NC(=O)C1(c2ccccc2)CCN(CCCc2nc3ccccc3c(=O)[nH]2)CC1 [Compound 4] | > 10 | 138.9 | 
NC(=O)C1(N2CCOCC2)CCN(CCCc2nc3ccccc3c(=O)[nH]2)CC1 [Compound 11] | > 10 |  | 
O=C1NC(CCCN2CCC(n3c(=O)[nH]c4ccccc43)CC2)Nc2ccccc21 (stereo not drawn) [Compound 7] | < 10 |  | 
O=C(CC1CCN(CCc2nc3ccccc3c(=O)[nH]2)CC1)c1ccc(F)cc1 [Compound 3] | 2.48 | 159.1 | 
O=C1NC(CCN2CCC(n3c(=O)[nH]c4ccccc43)CC2)Nc2ccccc21 (stereo not drawn) [Compound 13] |  |  | 6.03
O=C(NC1CCN(CCCC2NC(=O)c3ccccc3N2)CC1)c1ccccc1 (stereo not drawn) [Compound 8] | > 10 |  | 
O=C(c1ccc(F)cc1)C1CCN(CCc2nc3ccccc3c(=O)[nH]2)CC1 [Compound 9] | > 10 |  | 
O=C1NCN(c2ccccc2)C12CCN(CCCc1nc3ccccc3c(=O)[nH]1)CC2 [Compound 2] | > 10 |  | 
O=C(c1ccc(F)cc1)C1CCN(CCCc2nc3ccccc3c(=O)[nH]2)CC1 [Compound 14] | > 10 |  | 
O=C(NC1CCN(CCCc2nc3ccccc3c(=O)[nH]2)CC1)c1ccccc1 [Compound 12] | > 10 |  | 
NC(=O)C1(c2ccccc2)CCN(CCCC2NC(=O)c3ccccc3N2)CC1 (stereo not drawn) [Compound 5] | > 10 | 216.1 | 
